Test results reported in PubChem BioAssay (NCI).
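A five-concentration, 48-hour dose response in 96-well plates underlies each endpoint, interpolated linearly between surrounding concentrations. At the GI50, growth is halved. TGI denotes the concentration required for complete inhibition of growth.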

Experiments:
Assay in all cases: inhibition of tumour cell growth, NCI panel, 48 h
MCF7 breast = tested on: MCF7 breast
MDA-MB-435 = tested on: MDA-MB-435
NCI/ADR-RES ovarian = tested on: NCI/ADR-RES ovarian
HS 578T breast = tested on: HS 578T breast
MDA-N = tested on: MDA-N
LXFL 529 NSCLC = tested on: LXFL 529 NSCLC

Structure (SMILES) | GI50 (MCF7 breast) | TGI (MCF7 breast) | GI50 (MDA-MB-435) | TGI (MDA-MB-435) | GI50 (NCI/ADR-RES ovarian) | TGI (NCI/ADR-RES ovarian) | GI50 (HS 578T breast) | TGI (HS 578T breast) | GI50 (MDA-N) | TGI (MDA-N) | GI50 (LXFL 529 NSCLC) | TGI (LXFL 529 NSCLC)
CNC(=O)c1cc(-c2ccc(F)cc2)cc(-c2ccc(S(=O)(=O)N3CCCC3)cc2)c1N | 8.79 µM | > 25 µM | > 25 µM | > 25 µM | 16.2 µM | > 25 µM | > 11.1 µM | > 25 µM |  |  |  | 
CNc1nc(-c2ccc3c(N)n[nH]c3c2)cc(N2C[C@@H](C(=O)NC3CCCCC3)CC[C@H]2C)n1 | 0.996 µM | 11.2 µM | 1.11 µM | 14.4 µM | 13.3 µM | 41.3 µM | 1.06 µM | 8.86 µM |  |  |  | 
C1CC[N-]CC1.CC(=N\O)/C(C)=N/O.CC(=N\O)/C(C)=N/O.C[CH-]C(C)O.[Co+2] | 24.4 µM | 57.8 µM | 23.1 µM | 51.7 µM | 54.2 µM | > 100 µM | 28 µM | 83.1 µM | 26.6 µM | 77 µM |  | 
COc1ccc2c(c1)C=CC1C2CC[C@]2(C)C(NC(=O)/C=C/c3ccc(O)c(O)c3)CCC12 (stereo partly specified) | 6.28 µM | 20.8 µM | 14.7 µM | 36.6 µM | 11.8 µM | 33.5 µM | 27.2 µM | > 100 µM |  |  |  | 
O=C1/C(=C/c2ccc(O)cc2)Oc2ccccc21 |  | > 100 µM |  | > 100 µM |  | > 100 µM |  | > 100 µM |  | > 100 µM |  | 
CC1=C(SCCC(=O)OC(C[Se]C2=C(C)C(=O)c3ccccc3C2=O)C(=O)NC(C)(C)C)C(=O)c2ccccc2C1=O (stereo unspecified) | 1.62 µM | 3.65 µM | 1.77 µM | 3.77 µM | 0.701 µM | 1.98 µM | 1.07 µM | 3.31 µM |  |  |  | 
CSc1nc2ccc(C)cc2cc1/C=C1/C=C(c2ccccc2)NC1=O | 12.5 µM | > 100 µM | 0.718 µM | 21 µM | 3.99 µM | 87.5 µM | 1.92 µM | 7.46 µM |  |  |  | 
CN1CCN(c2nc3cc(F)ccc3n3cccc23)CC1 |  | > 100 µM |  | 64.6 µM |  | > 100 µM |  | 97.9 µM |  | > 100 µM |  | 
Cn1cc(-c2csc(-c3cn(C(=O)OC(C)(C)C)c4ccccc34)n2)c2cccnc21 | 2.85 µM | 16.3 µM | 1.68 µM | 22.2 µM | 2.33 µM | 14.4 µM | 3.93 µM | 25.7 µM |  |  |  | 
NC1=C(O)C(=O)C(c2c[nH]c3ccc(OCc4ccccc4)cc23)O1 (stereo unspecified) |  | > 100 µM |  | > 100 µM |  | > 100 µM |  | > 100 µM |  | > 100 µM |  | 
CCOC(=O)N(O)c1ccc(/C=C/c2ccccc2)cc1 | 0.341 µM | 14.6 µM | 11 µM | 48.6 µM | 13 µM | 88.6 µM | 29.4 µM | > 100 µM |  |  |  | 
CC(=O)OC1=C(CC(C)(C)C)C(=O)c2ccccc2C1=O |  | > 100 µM |  | 60.8 µM |  | 85.3 µM |  | 50.5 µM |  |  |  | 
O=C1C=CC(=O)c2c(O)c(N(CCCl)CCCl)c(Cl)c(O)c21 |  | > 8.33 µM |  | 5.83 µM |  | > 10 µM |  | > 10 µM |  | 5.79 µM |  | 
CC(=O)[O][Hg][c]1s[c]([Hg][O]C(C)=O)[c]([Hg][O]C(C)=O)[c]1[Hg][O]C(C)=O |  |  |  |  |  |  |  |  |  |  | 1.79 µM | 9.72 µM
N=C1C=C(N)C(=O)c2ccccc21 | 0.188 µM | 0.391 µM | 0.163 µM | 0.31 µM | 0.296 µM | 1.01 µM | 0.353 µM |  |  |  |  | 
CCSc1nc(N)c2cnn(CC)c2n1 | 16.6 µM | 79 µM | 7.64 µM | 37.8 µM | 18.5 µM | 63.3 µM | 4.19 µM | 26 µM |  |  |  | 
CC[C@@H](C(=O)[C@@H](C)[C@@H](O)[C@H](C)[C@@H]1O[C@@H]([C@@H](CC)C(=O)O)CC[C@@H]1C)[C@H]1O[C@]2(C=C[C@@H](O)[C@]3(CC[C@@](C)([C@H]4CC[C@](O)(CC)[C@H](C)O4)O3)O2)[C@H](C)C[C@@H]1C | 0.315 µM | 13.1 µM | 1.08 µM | 2.72 µM | 1.32 µM | 51.4 µM | 0.914 µM | 36.1 µM |  |  |  | 
Cn1cccc1-c1cc(-c2ccccc2)nc(N)c1C#N | > 100 µM | > 100 µM | > 100 µM | > 100 µM | > 100 µM | > 100 µM | > 28.8 µM | > 100 µM |  |  |  | 
O=C1CC2OCC=C3CN4CCC5(C(=O)O)C(N1)C2C3CC45 (stereo unspecified) |  | > 100 µM |  | > 100 µM |  | > 100 µM |  | > 100 µM |  | > 100 µM |  | 
C/C(=N\Nc1n[nH]c(=S)n1N)c1c(O)cc(C)oc1=O |  |  |  |  |  |  |  |  |  |  |  | > 100 µM
O=C(/C=C/c1ccc(Cl)cc1Cl)c1ccc(Cl)cc1Cl | 7.88 µM | > 24 µM | 16.7 µM | 35.3 µM | 25.1 µM | > 77.2 µM | 20.1 µM | 58.2 µM |  |  |  | 
CN(C)Cc1cc(C(C)(C)C)cc(CN(C)C)c1O |  | > 100 µM |  | > 100 µM |  | > 100 µM |  | > 100 µM |  | > 100 µM |  | 
Cc1ccc([N+]2=NC(c3ccccc3)=NN(c3ccccc3)C2)cc1 |  |  |  |  |  |  |  |  |  |  |  | > 100 µM
O=C(N/N=C/c1ccc(N(CCCl)CCCl)cc1)c1ccc(C(=O)N/N=C/c2ccc(N(CCCl)CCCl)cc2)cc1 | 0.38 µM | > 100 µM | 29.8 µM | > 100 µM | > 100 µM | > 100 µM | 3.54 µM | > 100 µM |  |  |  | 
COC(=N)CCCl |  | > 100 µM |  |  |  | > 100 µM |  |  |  | > 100 µM |  | 
Cc1c2ccccc2c(C)n2c1nc1cc(Cl)c(Cl)cc12 | 1.09 µM | > 100 µM | > 100 µM | > 100 µM | > 100 µM |  | > 100 µM | > 100 µM |  |  |  | 
